Measured values from patent US20180066018A1, “CONFORMATIONALLY STABLE ANALOGS OF THE RESPONSE SELECTIVE C5A AGONIST EP67” (Board Of Regents Of The University Of Nebraska, priority 2015, published 2018).
“Also recorded” adds a separate entry of the source. Non-standard residues stand in square brackets, D forms with d. No end group written: not given here. NMeL = CN[C@@H](CC(C)C)C(=O)O; Aib = CC(C)(N)C(=O)O

Assays:
[1] = tested on: human monocytes; assay: Differentiation/maturation of human monocytes into macrophages in vitro (light microscopy); assay type: cell-based
Experimental: To assess the binding of EP67 analogs to APCs and subsequent biological activity on these cells, peptides were assayed for their ability to elicit the activation of monocytes in vitro and to drive the differentiation/maturation of human monocytes into macrophages and subsequently dendritic cells.
Briefly, monocytes were harvested from human peripheral blood mononuclear cells. The human monocytes were incubated at 37 degrees C. for 24 hrs in media the presence of PBS, 100 μg/ml of EP67, 100 μg/ml of EP144, and 100 μg/ml of EP145. The cells were also incubated with for 48 hrs with sEP67 as a control. The cells were then photographed under light microscopy at 20× or 40× magnification. […] Panels A-C & G are at 20× magnification and Panels D-E are at 40× magnification.

[2] = tested on: human and porcine monocytes; conditions: cited from earlier work
[3] = tested on: human and mouse macrophages; conditions: cited from earlier work
[4] = tested on: C5aR-bearing macrophages vs. C5aR-bearing neutrophils; assay: Bioselectivity: cytokine release from macrophages vs. MPO release from neutrophils; assay type: cell-based; conditions: antilog[(−Δmacrophage)−(−Δneutrophil)], relative to C5a set at 1
Description: 2. Potency. Analog potency will be measured by half maximal effective concentration (EC50); i.e., the concentration of the analog to induce a response halfway between baseline and maximum effect. EC50 values for each analog be determined in two separate assays: cytokine release from macrophages and MPO release from neutrophils.
In macrophages, we will measure the release of the TH1 cytokines IL-6, TNFα, and INFγ in accordance to our previously published methods (Morgan et al. Enhancement of In Vivo and In Vitro Immune Functions by a Conformationally Biased, Response-Selective Agonist of Human C5a: Implications for a Novel Adjuvant in Vaccine Design. Vaccine 28:463-469, 2010; Morgan et al. A novel adjuvant for vaccine development in the aged. Vaccine 28:8275-8279, 2010). These cytokines are consistently released in readily measurable amounts from macrophages (as well as monocytes and dendritic cells) and will be representative of what we have seen with EP67 and consistent with the nature of the supporting data presented above. Briefly, macrophages will be incubated in the presence of various concentrations of analogs (10, 50, 100, 200 μg/ml) in standard cell culture conditions for 6, 12, and 24, hrs. […]
3. […] Analog selectivity for cytokine release from macrophages vs. MPO release from neutrophils will be determined by the following equation: […]

[5] = NMR (ROESY) determination of cis/trans conformer populations of the Met-Xaa peptide bond; assay type: physicochemical; conditions: in solution
Description: NMR spectroscopy is the best method for detection of cis/trans prolyl isomerization in a peptide. AAx-Pro cis/trans isomerization (where AAx is any adjacent amino acid residue) is detectable via two resonance frequencies in the NMR spectra per nuclear spin in the proximity of the isomerizing bond. Rotating-Frame NOE Spectroscopy (ROESY) was used to analyze EP67 (150 msec mixing time) in DMSO-d6. Characteristic NOE patterns readily discriminate the resonances arising from the cis and trans conformers allowing for specific assignments of each. Also, the relative populations of each conformer can be determined by integration of the separate peak volumes. Short ^1H-^1H distances (NOEs) between the alpha proton of AAx and the alpha proton of Pro are diagnostic of the cis AAx-Pro peptide bond. On the other hand, an observed NOE between the alpha proton of AAx and the delta protons of Pro are diagnostic of the trans AAx-Pro peptide bond.
where AA and AA′ are adjacent amino acids.
Analog peptides can be analyzed by NMR spectroscopy to verify structure and ascertain cis/trans conformer ratios of the Pro-substituted analogs. Special attention should be paid to the angles formed about α-carbon […]) and carbonyl carbon (Ψ and ω bonds) in the Met residue to the N-terminus of the substituted Pro residues. […]

[6] = 100 μg/ml, 37 degrees C., 24 hrs

Molecule: M(MeL)RFPDaYKS (M[NMeL]RFPD[dA]YKS) [sEP67]
- differentiation of human monocytes to macrophages (adhesion to substrate and flattening) ([1]; control peptide, 48 hrs): do not exhibit this phenotype

Molecule: Tyr-Ser-Phe-Lys-Asp-Met-Pro-(MethylLeu)-D-Ala-Arg (YSFKDMP[NMeL][dA]R) [EP67]
- differentiation of human monocytes to macrophages (adhesion to substrate and flattening) [1, 6]: monocytes mature into macrophages
- necrosis and apoptosis of the macrophages/dendritic cells once generated [2]: decreases necrosis and apoptosis
- differentiation of monocytes to macrophages and dendritic cells ([2]; human and porcine monocytes): induces the differentiation of human and porcine monocytes to macrophages and dendritic cells
- release of Th1 cytokines (IL-1β, IL-6, IL-8, IL-12, TNFα, IFNγ) [3]: induces the release of T helper type 1 (Th1) cytokines
- release of Th2 cytokines (IL-2, IL-4, IL-5, IL-10) [3]: few T helper type 2 (Th2) cytokines
- selectivity factor for macrophage activity over that of neutrophils [4]: 2951

Molecule: YSFKDM(Aib)LaR (YSFKDM[Aib]L[dA]R-OH) [EP144, EP67 analog with Pro substituted with 2-aminoisobutyric acid and MeL with Leu]
- differentiation of human monocytes to macrophages (adhesion to substrate and flattening) [1, 6]: drive the differentiation of human monocytes to macrophages; also recorded: monocytes mature into macrophages
- cis:trans conformer ratio [5]: all-trans

Molecule: YSFKDM(dmP)(MeL)aR (YSFKDMXLAR; 5,5'-dimethylproline, N-methyl-Leu, D-Ala; MOD_RES (7)..(7) Xaa is 5,5′-dimethylproline; MOD_RES (8)..(8) N-methyl Leu; MOD_RES (9)..(9) D-Ala) [EP145, EP67 analog with Pro substituted with 5,5′-dimethylproline]
- differentiation of human monocytes to macrophages (adhesion to substrate and flattening) [1, 6]: drive the differentiation of human monocytes to macrophages; also recorded: monocytes mature into macrophages

B1: C5a: short (74 residues in human) glycoprotein generated by enzymatic cleavage of complement C5 (protein, UniProt P01031 678-751, looked up)
C5a anaphylatoxin: TLQKKIEEIAAKYKHSVVKKCCYDGACVNNDETCEQRAARISLGPRCIKAFTECCVVASQLRANISHKDMQLGR
modifications: C5a anaphylatoxin
notes: short (74 residues in human) glycoprotein generated by enzymatic cleavage of complement C5
- selectivity factor for macrophage activity over that of neutrophils [4]: 1
